# Measurements taken from patent publication US9422254B2, “Methoxyacrylate-based fungicide and methods for preparing and using the same” (priority 2008, dated 2016).
# Assays:
# Experiment in all cases: In vitro inhibition, pathogens from tropical plants
# Assay type in all cases: cell-based
# [1] = tested on: Banana Sigatoka Leaf Spot Disease
# Procedure: (§1) 5 wt % formulation of the active compound of Formula (I) was prepared into a solution (300 mg/L). To a sterilized Erlenmeyer flask, 2 mL of the solution and 18 mL of PDA culture medium (50° C.) were added. The mixture was shaken uniformly and dumped into two dishes whose diameter was 9 cm to yield two toxic PDA culture mediums having a concentration of 30 mg/L. Various cultured pathogens were punched at the edge of colony by a puncher having a diameter of 5 mm respectively, and the obtained pieces were transferred to the center of the toxic PDA culture medium by an inoculating needle and cultured in an incubator at 25° C. Repeat the above steps. According to the growth status of CK colony, the colony diameter of pathogens was measured by crossing method with a caliper and thereby a corrected inhibition percentage was calculated.
# (§2) For each colony, diameter was measured twice by crossing method and the average was practicable. The colony growth inhibition rate was calculated as follows: Colony growth inhibition rate %=(diameter of CK colony−diameter of target colony)×100/diameter of CK colony
# (§3) Following the above method, as targets 17 pathogens originated from tropical plants were tested. The pathogens were Rhizopus sp., Aspergillus, Colletotrichum gloeosporioides Penz, Banana Fusarium wilt, Colletouichum coccodes, Hughas, B. heveas, Cucumber mosaic virusstrain banana, Banana Sigatoka Leaf Spot Disease, Colletotrichum gloeosporioides, Colletotrichum musae (Berk & Curt) Arx, Botryodiplodia theobromae, Cladosporium cucumerinum Ellis et Arthur, Periconia hevenae, Colletotrichum gloeosporioides, B. cinerea, Diplodia natalensis, and Curvularia.
# [2] = tested on: B. cinerea; details: Botrytis cinerea
# Procedure: as §1, §2, §3
# [3] = tested on: Banana Fusarium wilt
# Procedure: as §1, §2, §3
# [4] = tested on: Colletotrichum gloeosporioides (first entry, r49)
# Procedure: as §1, §2, §3
# [5] = tested on: Cladosporium cucumerinum Ellis et Arthur
# Procedure: as §1, §2, §3
# [6] = tested on: Curvularia
# Procedure: as §1, §2, §3
# [7] = tested on: Botryodiplodia theobromae; details: Lasiodiplodia theobromae
# Procedure: as §1, §2, §3
# [8] = tested on: B. heveas
# Procedure: as §1, §2, §3
# [9] = tested on: Colletotrichum gloeosporioides (second entry, r74)
# Procedure: as §1, §2, §3
# [10] = tested on: Diplodia natalensis
# Procedure: as §1, §2, §3
# [11] = tested on: Colletotrichum gloeosporioides Penz
# Procedure: as §1, §2, §3
# [12] = tested on: Colletotrichum musae (Berk & Curt) Arx
# Procedure: as §1, §2, §3
# [13] = tested on: Aspergillus
# Procedure: as §1, §2, §3
# [14] = tested on: Periconia hevenae
# Procedure: as §1, §2, §3
# [15] = tested on: Rhizopus sp.
# Procedure: as §1, §2, §3
# [16] = tested on: Colletouichum coccodes. Hughas
# Procedure: as §1, §2, §3
# [17] = tested on: Cucumber mosaic virusstrain banana
# Procedure: as §1, §2, §3
# [18] = 0.1 mg/L, read-out: Inhibition rate (%)
# [19] = 1 mg/L, read-out: Inhibition rate (%)
# [20] = 5 mg/L, read-out: Inhibition rate (%)
# [21] = 10 mg/L, read-out: Inhibition rate (%)
# [22] = 20 mg/L, read-out: Inhibition rate (%)
# [23] = 0.5 mg/L, read-out: Inhibition rate (%)
# [24] = 25 mg/L, read-out: Inhibition rate (%)
# [25] = 50 mg/L, read-out: Inhibition rate (%)
# [26] = 15 mg/L, read-out: Inhibition rate (%)
smiles,measurement,setting,value
"CO/C=C(/C(=O)OC)c1ccccc1CSc1nc2cc(OC)ccc2s1 [Compound of Formula (I), (E)-methyl 3-methoxy-2-(2-((5-methoxy-benzothiazol-2-ylthio)methyl)phenyl)acrylate]",EC50,[1],1.5 µg/mL
same,inhibition at 0.1 µg/mL,[1]; [18],17.2%
same,inhibition at 1 µg/mL,[1]; [19],43.5%
same,inhibition at 5 µg/mL,[1]; [20],63.7%
same,inhibition at 10 µg/mL,[1]; [21],77.9%
same,inhibition at 20 µg/mL,[1]; [22],85.8%
same,EC50,[2],1 µg/mL
same,inhibition at 0.1 µg/mL,[2]; [18],12.8%
same,inhibition at 0.5 µg/mL,[2]; [23],35.1%
same,inhibition at 1 µg/mL,[2]; [19],54.5%
same,inhibition at 5 µg/mL,[2]; [20],73.3%
same,inhibition at 10 µg/mL,[2]; [21],88.1%
same,EC50,[3],9.22 µg/mL
same,inhibition at 1 µg/mL,[3]; [19],13.5%
same,inhibition at 5 µg/mL,[3]; [20],30.2%
same,inhibition at 10 µg/mL,[3]; [21],60.5%
same,inhibition at 25 µg/mL,[3]; [24],67.6%
same,inhibition at 50 µg/mL,[3]; [25],80.4%
same,EC50,[4],1.97 µg/mL
same,inhibition at 0.1 µg/mL,[4]; [18],18.2%
same,inhibition at 1 µg/mL,[4]; [19],42.4%
same,inhibition at 5 µg/mL,[4]; [20],55.9%
same,inhibition at 10 µg/mL,[4]; [21],69.4%
same,inhibition at 20 µg/mL,[4]; [22],83.2%
same,EC50,[5],4.84 µg/mL
same,inhibition at 1 µg/mL,[5]; [19],6.77%
same,inhibition at 2.5 µg/mL,"[5]; 2.5 mg/L, read-out: Inhibition rate (%)",28.3%
same,inhibition at 5 µg/mL,[5]; [20],55%
same,inhibition at 10 µg/mL,[5]; [21],72.1%
same,inhibition at 20 µg/mL,[5]; [22],84.9%
same,EC50,[6],0.505 µg/mL
same,inhibition at 0.1 µg/mL,[6]; [18],28.8%
same,inhibition at 1 µg/mL,[6]; [19],63.5%
same,inhibition at 5 µg/mL,[6]; [20],75.9%
same,inhibition at 10 µg/mL,[6]; [21],76.6%
same,inhibition at 15 µg/mL,[6]; [26],80.6%
same,EC50,[7],3.7 µg/mL
same,inhibition at 0.5 µg/mL,[7]; [23],14.6%
same,inhibition at 1 µg/mL,[7]; [19],31.7%
same,inhibition at 5 µg/mL,[7]; [20],51.6%
same,inhibition at 10 µg/mL,[7]; [21],65.8%
same,inhibition at 20 µg/mL,[7]; [22],84%
same,EC50,[8],1.99 µg/mL
same,inhibition at 0.1 µg/mL,[8]; [18],9.09%
same,inhibition at 1 µg/mL,[8]; [19],43.9%
same,inhibition at 5 µg/mL,[8]; [20],61.4%
same,inhibition at 10 µg/mL,[8]; [21],70.5%
same,inhibition at 15 µg/mL,[8]; [26],81.4%
same,EC50,[9],6.92 µg/mL
same,inhibition at 0.1 µg/mL,[9]; [18],7.12%
same,inhibition at 1 µg/mL,[9]; [19],19.3%
same,inhibition at 5 µg/mL,[9]; [20],33.8%
same,inhibition at 10 µg/mL,[9]; [21],55.2%
same,inhibition at 20 µg/mL,[9]; [22],87.2%
same,EC50,[10],1.7 µg/mL
same,inhibition at 0.1 µg/mL,[10]; [18],20.7%
same,inhibition at 1 µg/mL,[10]; [19],40.2%
same,inhibition at 5 µg/mL,[10]; [20],60.7%
same,inhibition at 10 µg/mL,[10]; [21],73.7%
same,inhibition at 20 µg/mL,[10]; [22],82.3%
same,EC50,[11],4.63 µg/mL
same,inhibition at 0.1 µg/mL,[11]; [18],16.7%
same,inhibition at 1 µg/mL,[11]; [19],31.1%
same,inhibition at 5 µg/mL,[11]; [20],50.2%
same,inhibition at 10 µg/mL,[11]; [21],54.9%
same,inhibition at 25 µg/mL,[11]; [24],69.3%
same,inhibition at 50 µg/mL,[11]; [25],80.9%
same,EC50,[12],1.66 µg/mL
same,inhibition at 0.1 µg/mL,[12]; [18],19.1%
same,inhibition at 1 µg/mL,[12]; [19],37.2%
same,inhibition at 5 µg/mL,[12]; [20],64.5%
same,inhibition at 10 µg/mL,[12]; [21],78.7%
same,inhibition at 20 µg/mL,[12]; [22],85.8%
same,EC50,[13],5.03 µg/mL
same,inhibition at 0.1 µg/mL,[13]; [18],10.6%
same,inhibition at 1 µg/mL,[13]; [19],27.4%
same,inhibition at 5 µg/mL,[13]; [20],47.8%
same,inhibition at 10 µg/mL,[13]; [21],58.4%
same,inhibition at 25 µg/mL,[13]; [24],71.4%
same,inhibition at 50 µg/mL,[13]; [25],86.1%
same,EC50,[14],0.378 µg/mL
same,inhibition at 0.1 µg/mL,[14]; [18],33.2%
same,inhibition at 1 µg/mL,[14]; [19],66.4%
same,inhibition at 5 µg/mL,[14]; [20],74.2%
same,inhibition at 10 µg/mL,[14]; [21],77.6%
same,inhibition at 15 µg/mL,[14]; [26],81.7%
same,EC50,[15],4.18 µg/mL
same,inhibition at 1 µg/mL,[15]; [19],18.4%
same,inhibition at 5 µg/mL,[15]; [20],53.1%
same,inhibition at 10 µg/mL,[15]; [21],69.3%
same,inhibition at 15 µg/mL,[15]; [26],83.6%
same,inhibition at 20 µg/mL,[15]; [22],88.5%
same,EC50,[16],7.13 µg/mL
same,inhibition at 0.1 µg/mL,[16]; [18],10.1%
same,inhibition at 2 µg/mL,"[16]; 2 mg/L, read-out: Inhibition rate (%)",22.3%
same,inhibition at 5 µg/mL,[16]; [20],42.1%
same,inhibition at 15 µg/mL,[16]; [26],61.3%
same,inhibition at 25 µg/mL,[16]; [24],83.5%
same,EC50,[17],1.92 µg/mL
same,inhibition at 0.1 µg/mL,[17]; [18],9.84%
same,inhibition at 1 µg/mL,[17]; [19],40.2%
same,inhibition at 5 µg/mL,[17]; [20],62.3%
same,inhibition at 10 µg/mL,[17]; [21],76.6%
same,inhibition at 15 µg/mL,[17]; [26],84.8%
